ChEMBL document CHEMBL1155237, “Selective inhibitors of the mutant B-Raf pathway: discovery of a potent and orally bioavailable aminoisoquinoline” (J Med Chem, 2009)
pIC50: −log10 of the molar value.

Experiments:
[1] = biological target: cAMP-dependent protein kinase catalytic subunit beta (Homo sapiens) (UniProt P22694); experiment: Inhibition of PKACbeta assessed as enzyme activity at 1 uM relative to untreated control; design: scale not given: the % may be the effect or the level left
[2] = biological target: Casein kinase I isoform epsilon (Homo sapiens) (UniProt P49674); experiment: Inhibition of CSNK1E assessed as enzyme activity at 1 uM relative to untreated control; design: scale not given: the % may be the effect or the level left
[3] = biological target: Mitogen-activated protein kinase kinase kinase 7 (Homo sapiens) (UniProt O43318); experiment: Inhibition of TAK1 assessed as enzyme activity at 1 uM relative to untreated control; design: scale not given: the % may be the effect or the level left
[4] = biological target: Casein kinase I isoform delta (Homo sapiens) (UniProt P48730); experiment: Inhibition of CSNK1D assessed as enzyme activity at 1 uM relative to untreated control; design: scale not given: the % may be the effect or the level left
Casein kinase I isoform delta (Homo sapiens), sequence (P48730 whole entry, looked up, canonical isoform): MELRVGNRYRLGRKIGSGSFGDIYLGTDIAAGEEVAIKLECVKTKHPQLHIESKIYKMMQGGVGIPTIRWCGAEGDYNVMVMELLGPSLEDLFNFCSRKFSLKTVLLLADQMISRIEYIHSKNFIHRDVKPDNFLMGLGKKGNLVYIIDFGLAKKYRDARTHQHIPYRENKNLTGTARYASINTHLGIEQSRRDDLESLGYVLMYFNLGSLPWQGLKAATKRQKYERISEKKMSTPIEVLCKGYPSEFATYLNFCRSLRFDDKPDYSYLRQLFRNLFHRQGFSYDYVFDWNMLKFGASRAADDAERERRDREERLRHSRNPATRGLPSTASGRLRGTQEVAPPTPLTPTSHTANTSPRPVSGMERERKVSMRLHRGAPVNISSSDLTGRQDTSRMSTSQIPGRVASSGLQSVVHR

[5] = biological target: Cyclin-dependent kinase 14 (Homo sapiens) (UniProt O94921); experiment: Inhibition of PFTK1 assessed as enzyme activity at 1 uM relative to untreated control; design: scale not given: the % may be the effect or the level left
Cyclin-dependent kinase 14 (Homo sapiens), sequence (O94921 whole entry): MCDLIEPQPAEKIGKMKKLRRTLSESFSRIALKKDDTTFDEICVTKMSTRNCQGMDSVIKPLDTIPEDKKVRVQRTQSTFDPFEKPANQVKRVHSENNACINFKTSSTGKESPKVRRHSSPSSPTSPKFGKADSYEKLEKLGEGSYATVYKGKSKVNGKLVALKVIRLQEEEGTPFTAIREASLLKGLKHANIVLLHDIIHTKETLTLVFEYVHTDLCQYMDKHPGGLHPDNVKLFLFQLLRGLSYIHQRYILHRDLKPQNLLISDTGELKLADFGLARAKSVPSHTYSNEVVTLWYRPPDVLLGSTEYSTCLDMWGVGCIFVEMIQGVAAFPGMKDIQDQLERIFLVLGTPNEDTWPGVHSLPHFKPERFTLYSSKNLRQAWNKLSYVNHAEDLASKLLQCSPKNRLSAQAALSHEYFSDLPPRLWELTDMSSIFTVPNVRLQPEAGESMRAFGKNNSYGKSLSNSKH

[6] = biological target: Ephrin type-A receptor 6 (Homo sapiens) (UniProt Q9UF33); experiment: Inhibition of EPHA6 assessed as enzyme activity at 1 uM relative to untreated control; design: scale not given: the % may be the effect or the level left
[7] = biological target: Mitogen-activated protein kinase 13 (Homo sapiens) (UniProt O15264); experiment: Inhibition of p38delta assessed as enzyme activity at 1 uM relative to untreated control; design: scale not given: the % may be the effect or the level left
[8] = biological target: High affinity nerve growth factor receptor (Homo sapiens) (UniProt P04629); experiment: Inhibition of TRKA assessed as enzyme activity at 1 uM relative to untreated control; design: scale not given: the % may be the effect or the level left
High affinity nerve growth factor receptor (Homo sapiens), sequence (P04629 33-796 limits assumed): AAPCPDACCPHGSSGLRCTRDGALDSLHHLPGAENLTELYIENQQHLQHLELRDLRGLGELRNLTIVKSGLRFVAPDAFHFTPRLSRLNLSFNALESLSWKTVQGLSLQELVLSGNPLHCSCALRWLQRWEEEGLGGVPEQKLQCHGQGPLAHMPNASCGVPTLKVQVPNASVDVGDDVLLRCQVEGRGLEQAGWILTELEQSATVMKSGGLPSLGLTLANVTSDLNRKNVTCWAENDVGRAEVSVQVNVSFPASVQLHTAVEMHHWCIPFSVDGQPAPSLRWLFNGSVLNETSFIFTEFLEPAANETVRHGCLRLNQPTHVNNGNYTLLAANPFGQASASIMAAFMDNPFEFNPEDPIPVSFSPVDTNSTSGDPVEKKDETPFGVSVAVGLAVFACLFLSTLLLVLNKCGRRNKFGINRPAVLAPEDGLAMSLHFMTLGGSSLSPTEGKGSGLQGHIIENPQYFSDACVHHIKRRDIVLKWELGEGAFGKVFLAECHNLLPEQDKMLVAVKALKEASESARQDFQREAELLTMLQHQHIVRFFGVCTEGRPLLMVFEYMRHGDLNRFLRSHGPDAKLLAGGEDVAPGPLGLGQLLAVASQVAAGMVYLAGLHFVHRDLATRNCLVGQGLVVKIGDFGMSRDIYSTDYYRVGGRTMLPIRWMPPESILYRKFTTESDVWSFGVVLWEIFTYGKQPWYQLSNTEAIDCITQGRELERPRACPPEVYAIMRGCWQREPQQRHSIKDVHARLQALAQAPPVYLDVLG

[9] = biological target: Protein-tyrosine kinase 6 (Homo sapiens) (UniProt Q13882); experiment: Inhibition of PTK6 assessed as enzyme activity at 1 uM relative to untreated control; design: scale not given: the % may be the effect or the level left
[10] = biological target: TGF-beta receptor type-1 (Homo sapiens) (UniProt P36897); experiment: Inhibition of TGFBR1 assessed as enzyme activity at 1 uM relative to untreated control; design: scale not given: the % may be the effect or the level left
[11] = biological target: Protein kinase C eta type (Homo sapiens) (UniProt P24723); experiment: Inhibition of PRKCH assessed as enzyme activity at 1 uM relative to untreated control; design: scale not given: the % may be the effect or the level left
[12] = biological target: Mitogen-activated protein kinase kinase kinase kinase 2 (Homo sapiens) (UniProt Q12851); experiment: Inhibition of MAP4K2 assessed as enzyme activity at 1 uM relative to untreated control; design: scale not given: the % may be the effect or the level left
[13] = biological target: Serine/threonine-protein kinase Chk2 (Homo sapiens) (UniProt O96017); experiment: Inhibition of CHEK2 assessed as enzyme activity at 1 uM relative to untreated control; design: scale not given: the % may be the effect or the level left
[14] = system: eIF-2-alpha kinase GCN2 (Homo sapiens), Q9P2K8 [S808G]; experiment: Inhibition of GCN2 kinase domain-2 S808G mutant assessed as enzyme activity at 1 uM relative to untreated control; design: scale not given: the % may be the effect or the level left
[15] = biological target: Mitogen-activated protein kinase kinase kinase 3 (Homo sapiens) (UniProt Q99759); experiment: Inhibition of MAP3K3 assessed as enzyme activity at 1 uM relative to untreated control; design: scale not given: the % may be the effect or the level left
[16] = biological target: Mitogen-activated protein kinase kinase kinase kinase 1 (Homo sapiens) (UniProt Q92918); experiment: Inhibition of MAP4K1 assessed as enzyme activity at 1 uM relative to untreated control; design: scale not given: the % may be the effect or the level left
[17] = biological target: Citron Rho-interacting kinase (Homo sapiens) (UniProt O14578); experiment: Inhibition of CIT assessed as enzyme activity at 1 uM relative to untreated control; design: scale not given: the % may be the effect or the level left
[18] = biological target: Serine/threonine-protein kinase Nek2 (Homo sapiens) (UniProt P51955); experiment: Inhibition of NEK2 assessed as enzyme activity at 1 uM relative to untreated control; design: scale not given: the % may be the effect or the level left
[19] = biological target: BMP-2-inducible protein kinase (Homo sapiens) (UniProt Q9NSY1); experiment: Inhibition of BIKE assessed as enzyme activity at 1 uM relative to untreated control; design: scale not given: the % may be the effect or the level left
[20] = biological target: Myosin light chain kinase, smooth muscle (Homo sapiens) (UniProt Q15746); experiment: Inhibition of MLCK assessed as enzyme activity at 1 uM relative to untreated control; design: scale not given: the % may be the effect or the level left
[21] = biological target: Inhibitor of nuclear factor kappa-B kinase subunit beta (Homo sapiens) (UniProt O14920); experiment: Inhibition of IKK-beta assessed as enzyme activity at 1 uM relative to untreated control; design: scale not given: the % may be the effect or the level left
Mus musculus = experiment: Inhibition of ERK phosphorylation in human A375 SQ2 cells xenografted CD1 mouse at 2 mg/kg, po qd after 6 hrs; assay type: functional; settings: CD1, A-375, 6 h
[22] = system: Mast/stem cell growth factor receptor Kit (Homo sapiens), P10721 [V559D,V654A]; experiment: Inhibition of KIT V559D,V654A mutant assessed as enzyme activity at 1 uM relative to untreated control; design: scale not given: the % may be the effect or the level left
Mast/stem cell growth factor receptor Kit (Homo sapiens), P10721 [V559D,V654A], sequence (P10721 whole entry V559D/V654A): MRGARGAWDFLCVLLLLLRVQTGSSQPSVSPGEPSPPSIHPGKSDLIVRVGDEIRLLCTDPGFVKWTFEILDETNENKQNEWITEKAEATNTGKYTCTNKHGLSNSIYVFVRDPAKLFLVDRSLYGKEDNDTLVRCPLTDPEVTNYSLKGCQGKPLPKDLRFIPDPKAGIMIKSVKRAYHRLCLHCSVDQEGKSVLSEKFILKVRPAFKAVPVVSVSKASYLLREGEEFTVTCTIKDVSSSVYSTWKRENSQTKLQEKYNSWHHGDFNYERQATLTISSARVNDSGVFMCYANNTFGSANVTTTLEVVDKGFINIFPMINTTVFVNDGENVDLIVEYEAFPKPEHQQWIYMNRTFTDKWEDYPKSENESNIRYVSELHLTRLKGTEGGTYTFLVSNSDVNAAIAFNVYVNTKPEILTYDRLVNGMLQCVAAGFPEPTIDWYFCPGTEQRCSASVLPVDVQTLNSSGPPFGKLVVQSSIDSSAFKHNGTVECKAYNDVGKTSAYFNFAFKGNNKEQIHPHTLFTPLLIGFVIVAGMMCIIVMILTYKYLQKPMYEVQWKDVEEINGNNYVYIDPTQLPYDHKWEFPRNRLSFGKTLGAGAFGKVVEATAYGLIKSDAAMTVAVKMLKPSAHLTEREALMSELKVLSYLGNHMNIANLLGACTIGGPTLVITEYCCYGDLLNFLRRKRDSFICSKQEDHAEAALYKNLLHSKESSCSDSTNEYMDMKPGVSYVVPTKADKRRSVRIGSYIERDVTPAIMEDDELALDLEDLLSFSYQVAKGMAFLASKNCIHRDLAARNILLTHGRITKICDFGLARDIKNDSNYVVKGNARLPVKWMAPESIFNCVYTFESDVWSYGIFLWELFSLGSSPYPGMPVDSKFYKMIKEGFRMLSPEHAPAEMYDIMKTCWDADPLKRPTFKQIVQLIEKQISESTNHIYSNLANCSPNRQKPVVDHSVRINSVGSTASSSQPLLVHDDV

[23] = biological target: RAC-alpha serine/threonine-protein kinase (Homo sapiens) (UniProt P31749); experiment: Inhibition of AKT1 assessed as enzyme activity at 1 uM relative to untreated control; design: scale not given: the % may be the effect or the level left
RAC-alpha serine/threonine-protein kinase (Homo sapiens), sequence (P31749 whole entry): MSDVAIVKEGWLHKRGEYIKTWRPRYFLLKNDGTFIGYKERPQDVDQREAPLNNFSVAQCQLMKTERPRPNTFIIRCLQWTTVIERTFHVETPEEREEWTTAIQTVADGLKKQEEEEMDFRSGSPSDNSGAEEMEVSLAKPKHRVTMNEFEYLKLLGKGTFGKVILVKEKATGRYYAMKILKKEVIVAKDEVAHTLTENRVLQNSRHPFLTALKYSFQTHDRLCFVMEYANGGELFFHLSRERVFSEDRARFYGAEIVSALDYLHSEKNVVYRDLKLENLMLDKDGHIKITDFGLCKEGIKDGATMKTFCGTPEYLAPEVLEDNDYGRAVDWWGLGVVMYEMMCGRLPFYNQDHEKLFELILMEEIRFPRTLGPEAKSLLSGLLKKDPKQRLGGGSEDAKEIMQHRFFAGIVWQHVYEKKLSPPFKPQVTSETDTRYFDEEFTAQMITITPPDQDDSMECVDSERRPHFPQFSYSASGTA

[24] = biological target: Serine/threonine-protein kinase SIK1 (Homo sapiens) (UniProt P57059); experiment: Inhibition of SNF1LK assessed as enzyme activity at 1 uM relative to untreated control; design: scale not given: the % may be the effect or the level left
[25] = biological target: Phosphatidylinositol 5-phosphate 4-kinase type-2 beta (Homo sapiens) (UniProt P78356); experiment: Inhibition of PIP5K2B assessed as enzyme activity at 1 uM relative to untreated control; design: scale not given: the % may be the effect or the level left
[26] = biological target: Proto-oncogene tyrosine-protein kinase receptor Ret (Homo sapiens) (UniProt P07949); experiment: Inhibition of RET assessed as enzyme activity at 1 uM relative to untreated control; design: scale not given: the % may be the effect or the level left
[27] = biological target: Serine/threonine-protein kinase Nek6 (Homo sapiens) (UniProt Q9HC98); experiment: Inhibition of NEK6 assessed as enzyme activity at 1 uM relative to untreated control; design: scale not given: the % may be the effect or the level left
Serine/threonine-protein kinase Nek6 (Homo sapiens), sequence (Q9HC98 whole entry): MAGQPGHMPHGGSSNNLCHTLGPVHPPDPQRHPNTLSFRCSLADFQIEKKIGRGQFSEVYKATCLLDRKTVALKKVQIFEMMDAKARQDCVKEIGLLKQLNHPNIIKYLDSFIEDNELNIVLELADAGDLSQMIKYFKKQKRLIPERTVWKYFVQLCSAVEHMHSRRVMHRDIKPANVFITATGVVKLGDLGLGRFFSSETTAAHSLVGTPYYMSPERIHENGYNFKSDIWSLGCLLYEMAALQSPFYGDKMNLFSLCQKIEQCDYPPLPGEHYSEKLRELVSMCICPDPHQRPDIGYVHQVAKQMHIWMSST

[28] = biological target: Mitogen-activated protein kinase 14 (Homo sapiens, UniProt Q16539); experiment: Inhibition of p38alpha
[29] = biological target: MAP kinase-activated protein kinase 2 (Homo sapiens) (UniProt P49137); experiment: Inhibition of MAPKAPK2 assessed as enzyme activity at 1 uM relative to untreated control; design: scale not given: the % may be the effect or the level left
[30] = biological target: BDNF/NT-3 growth factors receptor (Homo sapiens) (UniProt Q16620); experiment: Inhibition of TRKB assessed as enzyme activity at 1 uM relative to untreated control; design: scale not given: the % may be the effect or the level left
[31] = biological target: Insulin receptor (Homo sapiens) (UniProt P06213); experiment: Inhibition of INSR assessed as enzyme activity at 1 uM relative to untreated control; design: scale not given: the % may be the effect or the level left
[32] = biological target: Phosphatidylinositol 4,5-bisphosphate 3-kinase catalytic subunit beta isoform (Homo sapiens) (UniProt P42338); experiment: Inhibition of PIK3CB assessed as enzyme activity at 1 uM relative to untreated control; design: scale not given: the % may be the effect or the level left
Phosphatidylinositol 4,5-bisphosphate 3-kinase catalytic subunit beta isoform (Homo sapiens), sequence (P42338 whole entry, looked up, canonical isoform): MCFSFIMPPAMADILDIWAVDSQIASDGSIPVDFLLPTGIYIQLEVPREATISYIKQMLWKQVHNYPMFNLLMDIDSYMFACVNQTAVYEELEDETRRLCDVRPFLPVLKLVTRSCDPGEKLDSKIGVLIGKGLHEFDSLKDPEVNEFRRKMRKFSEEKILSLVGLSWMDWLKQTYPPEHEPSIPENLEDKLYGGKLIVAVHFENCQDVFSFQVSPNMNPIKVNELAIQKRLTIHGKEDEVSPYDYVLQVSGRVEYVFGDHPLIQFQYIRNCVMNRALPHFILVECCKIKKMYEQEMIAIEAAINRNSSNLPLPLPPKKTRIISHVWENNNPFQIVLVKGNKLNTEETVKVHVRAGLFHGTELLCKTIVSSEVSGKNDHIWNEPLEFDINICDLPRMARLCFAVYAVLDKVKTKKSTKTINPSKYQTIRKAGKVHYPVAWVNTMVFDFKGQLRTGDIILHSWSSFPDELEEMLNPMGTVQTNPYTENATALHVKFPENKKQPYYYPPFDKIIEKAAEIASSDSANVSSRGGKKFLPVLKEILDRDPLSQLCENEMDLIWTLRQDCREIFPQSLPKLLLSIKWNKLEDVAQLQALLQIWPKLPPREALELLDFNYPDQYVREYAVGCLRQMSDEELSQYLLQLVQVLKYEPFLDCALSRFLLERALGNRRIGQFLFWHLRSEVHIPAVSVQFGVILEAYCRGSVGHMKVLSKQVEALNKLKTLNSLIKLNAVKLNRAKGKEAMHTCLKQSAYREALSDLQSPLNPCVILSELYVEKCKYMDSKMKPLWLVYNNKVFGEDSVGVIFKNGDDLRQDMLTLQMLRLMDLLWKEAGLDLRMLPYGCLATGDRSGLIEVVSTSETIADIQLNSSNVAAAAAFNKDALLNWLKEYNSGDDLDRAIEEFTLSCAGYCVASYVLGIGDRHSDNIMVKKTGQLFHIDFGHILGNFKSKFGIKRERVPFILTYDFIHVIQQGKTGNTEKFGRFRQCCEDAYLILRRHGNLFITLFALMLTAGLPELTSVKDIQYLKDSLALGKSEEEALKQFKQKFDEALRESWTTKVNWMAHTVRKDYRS

[33] = biological target: Dual specificity protein kinase CLK2 (Homo sapiens) (UniProt P49760); experiment: Inhibition of CLK2 assessed as enzyme activity at 1 uM relative to untreated control; design: scale not given: the % may be the effect or the level left
[34] = biological target: AP2-associated protein kinase 1 (Homo sapiens) (UniProt Q2M2I8); experiment: Inhibition of AAK1 assessed as enzyme activity at 1 uM relative to untreated control; design: scale not given: the % may be the effect or the level left
[35] = biological target: Tyrosine-protein kinase JAK2 (Homo sapiens) (UniProt O60674); experiment: Inhibition of JAK2 kinase domain 2 assessed as enzyme activity at 1 uM relative to untreated control; design: scale not given: the % may be the effect or the level left
[36] = biological target: Serine/threonine-protein kinase PAK 2 (Homo sapiens) (UniProt Q13177); experiment: Inhibition of PAK2 assessed as enzyme activity at 1 uM relative to untreated control; design: scale not given: the % may be the effect or the level left
Serine/threonine-protein kinase PAK 2 (Homo sapiens), sequence (Q13177 whole entry): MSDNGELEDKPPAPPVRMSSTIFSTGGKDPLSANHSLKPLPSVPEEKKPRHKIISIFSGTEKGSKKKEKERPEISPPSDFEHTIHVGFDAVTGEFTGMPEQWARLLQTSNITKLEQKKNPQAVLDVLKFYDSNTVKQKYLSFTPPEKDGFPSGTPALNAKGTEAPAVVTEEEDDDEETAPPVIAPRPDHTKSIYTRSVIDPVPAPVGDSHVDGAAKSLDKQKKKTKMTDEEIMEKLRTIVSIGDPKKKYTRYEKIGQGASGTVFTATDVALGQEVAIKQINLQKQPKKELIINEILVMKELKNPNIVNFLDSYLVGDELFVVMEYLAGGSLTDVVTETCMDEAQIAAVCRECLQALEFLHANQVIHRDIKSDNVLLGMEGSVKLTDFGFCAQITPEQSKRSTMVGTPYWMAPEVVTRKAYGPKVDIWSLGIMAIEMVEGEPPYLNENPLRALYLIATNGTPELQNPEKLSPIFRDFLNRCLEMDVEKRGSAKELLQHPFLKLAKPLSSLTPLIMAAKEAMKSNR

For `Cc1ccc2c(Nc3ccc(Cl)cc3)nccc2c1Nc1ncccc1-c1ncnc2[nH]cnc12.Cl.Cl.Cl`, which Activity [1] is on record?
Its Activity is 94%.

What about the Activity [2] of the same molecule?
Its Activity is 99%.

What about the Activity [3] of the same molecule?
Its Activity is 84%.

What about the Activity [4] of the same molecule?
The Activity was 99%.

What about the Activity [5] of the same molecule?
Its Activity is 100%.

What about the Activity [6] of the same molecule?
The Activity was 2.8%.

What about the Activity [7] of the same molecule?
Its Activity is 100%.

And the Activity [8]?
The Activity was 15%.

What about the Activity [9] of the same molecule?
Its Activity is 13%.

And the Activity [10]?
Its Activity is 89%.

And the Activity [11]?
The Activity was 100%.

What about the Activity [12] of the same molecule?
The Activity was 100%.

What about the Activity [13] of the same molecule?
The Activity was 100%.

And the Activity [14]?
Its Activity is 100%.

And the Activity [15]?
The Activity was 40%.

And the Activity [16]?
The Activity was 100%.

What about the Activity [17] of the same molecule?
Its Activity is 64%.

What about the Activity [18] of the same molecule?
The Activity was 90%.

And the Activity [19]?
Its Activity is 70%.

And the Activity [20]?
Its Activity is 99%.

What about the Activity [21] of the same molecule?
The Activity was 100%.

What about the inhibition in vivo at 2 mg/kg (Mus musculus) of the same molecule?
The inhibition in vivo at 2 mg/kg was 69%.

And the Activity [22]?
Its Activity is 100%.

What about the Activity [23] of the same molecule?
Its Activity is 100%.

What about the Activity [24] of the same molecule?
The Activity was 75%.

And the Activity [25]?
The Activity was 57%.

What about the Activity [26] of the same molecule?
The Activity was 65%.

What about the Activity [27] of the same molecule?
The Activity was 100%.

And the pIC50 [28]?
Its pIC50 is less than 5.80.

What about the Activity [29] of the same molecule?
The Activity was 100%.

What about the Activity [30] of the same molecule?
The Activity was 9.4%.

What about the Activity [31] of the same molecule?
The Activity was 86%.

What about the Activity [32] of the same molecule?
The Activity was 100%.

And the Activity [33]?
The Activity was 100%.

What about the Activity [34] of the same molecule?
The Activity was 92%.

And the Activity [35]?
The Activity was 3.9%.

And the Activity [36]?
Its Activity is 85%.
